These results are taken from patent US6583309B1 (University of Medicine and Dentistry of New Jersey, priority 1999, dated 2003).

What is called Kd is the equilibrium constant for the complex coming apart.

The target in the test is TAR RNA. As to the kind of experiment: In vitro binding of resin-bound compounds to TAR RNA (OD260 of unbound RNA). Details: species or system HIV. Conditions: in vitro assay; compounds of formula I on TentaGel beads incubated with TAR RNA overnight at 4° C. in TK buffer; read-out: Kd (nM), binding constants. As to the method:
Binding of compounds of formula I and V to TAR RNA was measured by evaluating their inhibition of TAR-TAT complex formation in the presence of increasing levels of the compound to be tested. The compounds of formula I were tested in an in vitro assay; the compounds of formula V were tested in an in vivo assay.
The TAR RNA used corresponds to the minimal sequence required for TAT responsiveness in vivo. This 29-residue oligonucleotide has the sequence: 5′-[…]-3′ (SEQ ID NO.: 1). TAR RNA was prepared by in vitro transcription. A “top strand” single-stranded DNA oligomer having the sequence 5′-TAATACGACTCACTATAG-3′ (SEQ ID NO.: 2) was annealed to a “bottom strand” single-stranded DNA template having the following sequence: 3′-[…]-5′ (SEQ ID NO.: 3), thereby generating a double-stranded region corresponding to a promoter sequence recognized by T7 RNA polymerase. Transcription was carried out in transcription buffer (40 mM Tris-HCl, pH 8.1, 1 mM spermidine, 0.01% Triton®X-100, 5 mM dithiothreitol, 4 mM each of ATP, GTP, CTP, and UTP at 37° C. for 4 to 5 hours. Reactions were performed in a volume of 0.02 ml containing 8 pmole of template (top strand annealed to bottom strand) and 40 to 60 units of T7 RNA polymerase. Transcription was terminated by adding an equal volume of loading buffer (9M urea, 1 mmol EDTA, 0.1M bromophenol blue in 1XTBE buffer; TBE is 45 mmol trisborate at pH 8). Product RNA was purified by electrophoresis through a denaturing 20% polyacrylamide gel containing 8M urea. RNA was extracted from the gel, precipitated, dissolved in dithylpyrocarbonate-treated water, and stored at −20° C. until used.
In vitro assay conditions: Compounds AA-DU were synthesized on TentaGel S—NH2 (4.6 mmole). All Fmoc-amino acids were purchased from Bachem (Torrance, Calif.). 1-hydroxybenzotriazole (HOBT) and diisopropylcarbodiimide (DIPCDI) were obtained from Aldrich Chemical Co., Milwalkee, Wis. Piperidine and trifluoroacetic acid were purchased from Applied Biosystems Division, Perkin-Elmer. Compounds AA-DU were synthesized manually according to standard solid-phase peptide synthesis protocols. Coupling efficiencies of residues at each step were monitored by Kaiser test. Deprotection of trimer peptides was carried out in 10% water in trifluoroacetic acid (1 mL) for 16 hours at room temperature. After filtration of solvents, the resin was washed with water (1 mL×4), DMF (1 mL×4), dichloromethane (1 mL×4), and dried under reduced pressure. The compounds attached to the resin (10 beads) were placed in an Eppendorf tube and washed with TK buffer ([…]). The beads were suspended in TK buffer ([…]) and incubated with TAR RNA ([…]) overnight at 4° C. The suspension was centrifuged and the supernatant containing unbound RNA was transferred to a cuvette for OD260 measurements. The UV absorbance was measured by a Shimadzu UV-1601 spectrometer. Equilibrium concentrations of RNA were determined from these measurements. Given that the initial concentrations of ligand and RNA are known, and assuming simple bimolecular receptor/substrate binding, dissociation constant (KD) was calculated from straightforward equations.

Take `NCCCC[C@@H](COC(N)=O)NC(=O)OC[C@@H](CCCCN)NC(=O)[C@@H](N)CCCCN` [Compound CC, Carbamic acid 6-amino-2-[6-amino-2-(2,6-diamino-hexanoylamino)-hexyloxycarbonylamino]-hexyl ester]: the Kd is 567 nM.
Consider `NCCCCCNCC(=O)N[C@H](CCCCN)COC(=O)N[C@@H](CCCCN)COC(N)=O` [Compound CE, Carbamic acid 6-amino-2-{6-amino-2-[2-(5-amino-pentylamino)-acetylamino]-hexyloxycarbonylamino}-hexyl ester], for which the Kd worked out at 301 nM.
For the compound `N=C(N)NCCC[C@H](N)COC(=O)N(CCCCN)CC(=O)N[C@@H](CCCCN)COC(N)=O` [Compound CZ, Carbamic acid 6-amino-2-{2-[(4-amino-butyl)-(2-amino-5-guanidino-pentyloxycarbonyl)-amino]-acetylamino}-hexyl ester], the Kd was 183 nM.
In the case of `NCCCCCN(CC(=O)N[C@H](CCCCN)COC(N)=O)C(=O)[C@H](N)CCCCN` [Compound BE, Carbamic acid 6-amino-2-{2-[(5-amino-pentyl)-(2,6-diamino-hexanoyl)-amino]-acetylamino}-hexyl ester] it was 678 nM.
In the case of `NCCCCCCCNCC(=O)N(CCCCCCCN)CC(=O)N[C@H](CCCCN)COC(N)=O` [Compound BP, Carbamic acid 6-amino-2-(2-{(7-amino-heptyl)-[2-(7-amino-heptylamino)-acetyl]-amino}-acetylamino)-hexyl ester] it was 2190 nM; in that of `NCCCC[C@H](N)COC(=O)N[C@H](CCCCN)COC(=O)N[C@H](CCCCN)COC(N)=O` [Compound AA, Carbamic acid 6-amino-2-[6-amino-2-(2,6-diamino-hexyloxycarbonylamino)-hexyloxycarbonylamino]-hexyl ester], 639 nM.
For `NCCCC[C@H](N)COC(=O)N[C@H](CCCCN)COC(=O)N[C@@H](CCCCN)COC(N)=O` [Compound CA, Carbamic acid 6-amino-2-[6-amino-2-(2,6-diamino-hexyloxycarbonylamino)-hexyloxycarbonylamino]-hexyl ester] the value was 460 nM; for `NCCCCCCCNCC(=O)N[C@@H](CCCCN)COC(=O)N[C@H](CCCCN)COC(N)=O` [Compound AO, Carbamic acid 6-amino-2-{6-amino-2-[2-(7-amino-heptylamino)-acetylamino]-hexyloxycarbonylamino}-hexyl ester], 120 nM; for `NCCCCCCCN(CC(=O)N[C@@H](CCCCN)COC(N)=O)C(=O)CNCCCCN` [Compound DQ, Carbamic acid 6-amino-2-{2-[[2-(4-amino-butylamino)-acetyl]-(7-amino-heptyl)-amino]-acetylamino}-hexyl ester], 6140 nM.
`NCCCCCN(CC(=O)N[C@H](CCCCN)COC(N)=O)C(=O)OC[C@H](N)CCCCN` (stereo in doubt) [Compound BC, Carbamic acid 6-amino-2-{2-[(5-amino-pentyl)-(2,6-diamino-hexyloxycarbonyl)-amino]-acetylamino}-hexyl ester]: the Kd stood at 183 nM.
For `NCCCC[C@@H](COC(N)=O)NC(=O)OC[C@@H](CCCCN)NC(=O)[C@H](N)CCCCN` (stereo in doubt) [Compound CD, Carbamic acid 6-amino-2-[6-amino-2-(2,6-diamino-hexanoylamino)-hexyloxycarbonylamino]-hexyl ester] the value was 567 nM.
For `NCCCCCCCNCC(=O)N(CCCCCN)CC(=O)N[C@@H](CCCCN)COC(N)=O` [Compound DG, Carbamic acid 6-amino-2-{2-[[2-(7-amino-heptylamino)-acetyl]-(5-amino-pentyl)-amino]-acetylamino}-hexyl ester], the Kd was found to be 235 nM.
For `NCCCCCCCN(CC(=O)N[C@H](CCCCN)COC(N)=O)C(=O)[C@@H](N)CCCCN` [Compound BM, Carbamic acid 6-amino-2-{2-[(7-amino-heptyl)-(2,6-diamino-hexanoyl)-amino]-acetylamino}-hexyl ester] the value was 403 nM; for `NCCCCCNCC(=O)N[C@@H](CCCCN)COC(=O)N[C@@H](CCCCN)COC(N)=O` [Compound CN, Carbamic acid 6-amino-2-{6-amino-2-[2-(5-amino-pentylamino)-acetylamino]-hexyloxycarbonylamino}-hexyl ester], 235 nM; for `NCCCCCCCN(CC(=O)N[C@@H](CCCCN)COC(N)=O)C(=O)OC[C@@H](N)CCCCN` [Compound DK, Carbamic acid 6-amino-2-{2-[(7-amino-heptyl)-(2,6-diamino-hexyloxycarbonyl)-amino]-acetylamino}-hexyl ester], 1110 nM.
For `NCCCC[C@H](COC(N)=O)NC(=O)OC[C@H](CCCCN)NC(=O)[C@H](N)CCCCN` (stereo in doubt) [Compound AM, Carbamic acid 6-amino-2-[6-amino-2-(2,6-diamino-hexanoylamino)-hexyloxycarbonylamino]-hexyl ester] the value was 183 nM; for `NCCCC[C@H](COC(N)=O)NC(=O)OC[C@@H](CCCCN)NC(=O)OC[C@H](N)CCC(N)=O` [Compound AI, Carbamic acid 6-amino-2-[6-amino-2-(2-amino-4-carbamoyl-butoxycarbonylamino)-hexyloxycarbonylamino]-hexyl ester], 603 nM; for `NCCCC[C@H](COC(N)=O)NC(=O)OC[C@@H](CCCCN)NC(=O)[C@H](N)CCCCN` [Compound AD, Carbamic acid 6-amino-2-[6-amino-2-(2,6-diamino-hexanoylamino)-hexyloxycarbonylamino]-hexyl ester], 2080 nM.
For the compound `NCCCC[C@@H](N)COC(=O)N[C@H](CCCCN)COC(=O)N[C@H](CCCCN)COC(N)=O` [Compound AB, Carbamic acid 6-amino-2-[6-amino-2-(2,6-diamino-hexyloxycarbonylamino)-hexyloxycarbonylamino]-hexyl ester], the Kd worked out at 523 nM.
With `N=C(N)NCCC[C@H](N)COC(=O)N(CCCCCN)CC(=O)N[C@@H](CCCCN)COC(N)=O` [Compound DI, Carbamic acid 6-amino-2-{2-[(2-amino-5-guanidino-pentyloxycarbonyl)-(5-amino-pentyl)-amino]-acetylamino}-hexyl ester], the dissociation constant Kd was 235 nM.
Take `NCCCCNCC(=O)N[C@H](CCCCN)COC(=O)N[C@H](CCCCN)COC(N)=O` [Compound AG, Carbamic acid 6-amino-2-{6-amino-2-[2-(4-amino-butylamino)-acetylamino]-hexyloxycarbonylamino}-hexyl ester]: the Kd amounted to 403 nM.
For `NCCCC[C@@H](N)COC(=O)N(CCCCN)CC(=O)N[C@@H](CCCCN)COC(N)=O` [Compound CT, Carbamic acid 6-amino-2-{2-[(4-amino-butyl)-(2,6-diamino-hexyloxycarbonyl)-amino]-acetylamino}-hexyl ester] the value was 147 nM; for `N=C(N)NCCC[C@H](N)COC(=O)N(CCCCCCCN)CC(=O)N[C@@H](CCCCN)COC(N)=O` [Compound DR], 460 nM.
In the case of `NCCCC[C@@H](N)COC(=O)N[C@@H](CCCCN)COC(=O)N[C@@H](CCCCN)COC(N)=O` [Compound CK, Carbamic acid 6-amino-2-[6-amino-2-(2,6-diamino-hexyloxycarbonylamino)-hexyloxycarbonylamino]-hexyl ester] it was 1110 nM.
